Experimental data taken from patent US7772180B2, “Hepatitis C virus inhibitors” (Bristol-Myers Squibb Company, priority 2006, dated 2010).

Molecular target: T1, HCV NS3/4A protease complex, H77 strain (Hepatitis C virus genotype 1a, UniProt P27958, C1454S/C1711G)
T1 construct: DNA encoding the recombinant HCV NS3/4A protease complex (amino acids 1027 to 1711) for these strains; made in house; host or cells: Escherichia coli BL21 (DE3), pET21b
Test: FRET peptide assay to monitor HCV NS3/4A proteolytic activity (H77 strain)
Assay type: biochemical
Conditions: read-out: IC50 against the NS3/4A H77 strain
Source text: HCV NS3 protease complexes, derived from the BMS strain, H77 strain or J4L6S strain, were generated, as described below. These purified recombinant proteins were generated for use in a homogeneous assay (see below) to provide an indication of how effective compounds of the present disclosure would be in inhibiting HCV NS3 proteolytic activity.
Serum from an HCV-infected patient was obtained from Dr. T. Wright, San Francisco Hospital. An engineered full-length cDNA (compliment deoxyribonucleic acid) template of the HCV genome (BMS strain) was constructed from DNA fragments obtained by reverse transcription-PCR (RT-PCR) of serum RNA (ribonucleic acid) and using primers selected on the basis of homology between other genotype 1a strains. From the determination of the entire genome sequence, a genotype 1a was assigned to the HCV isolate according to the classification of Simmonds et al. (See P Simmonds, K A Rose, S Graham, S W Chan, F McOmish, B C Dow, E A Follett, P L Yap and H Marsden, J. Clin. Microbiol., 31(6), 1493-1503 (1993)). […]

T1 sequence (P27958 1027-1711 C1454S/C1711G, one chain of several): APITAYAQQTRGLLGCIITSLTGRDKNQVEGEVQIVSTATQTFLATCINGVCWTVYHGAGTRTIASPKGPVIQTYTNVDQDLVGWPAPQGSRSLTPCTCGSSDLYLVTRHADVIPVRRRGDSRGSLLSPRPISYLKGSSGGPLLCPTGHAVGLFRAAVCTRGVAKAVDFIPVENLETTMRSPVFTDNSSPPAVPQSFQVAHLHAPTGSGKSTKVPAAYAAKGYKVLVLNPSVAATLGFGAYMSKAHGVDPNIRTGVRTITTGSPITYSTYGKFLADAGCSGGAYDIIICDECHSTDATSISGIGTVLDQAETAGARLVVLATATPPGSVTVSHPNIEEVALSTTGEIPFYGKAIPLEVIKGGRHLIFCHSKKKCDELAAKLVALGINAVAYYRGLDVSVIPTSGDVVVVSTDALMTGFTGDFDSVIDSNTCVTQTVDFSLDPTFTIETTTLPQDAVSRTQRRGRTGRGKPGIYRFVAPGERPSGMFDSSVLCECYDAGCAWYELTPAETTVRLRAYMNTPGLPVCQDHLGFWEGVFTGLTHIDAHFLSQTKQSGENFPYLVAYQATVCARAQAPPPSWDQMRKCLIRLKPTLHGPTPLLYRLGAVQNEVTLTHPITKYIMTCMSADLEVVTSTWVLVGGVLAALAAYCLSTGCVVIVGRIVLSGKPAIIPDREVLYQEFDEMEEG

C=C[C@@H]1C[C@]1(NC(=O)[C@@H]1C[C@@H](Oc2nc(N(C)C)cc3cc(OC)ccc23)CN1C(=O)C(Nc1cc(C)cc(C)n1)C(C)(C)C)C(=O)NS(=O)(=O)C1CC1 (single isomer, unassigned) [Compound 18]
IC50: 1.2 nM
